According to patent EP0193189A1, “Novel compound, its production and insecticidal and acaricidal composition containing it as an active ingredient” (SUMITOMO CHEMICAL COMPANY, LIMITED, priority 1985, dated 1986):
In brackets after ≈: the same amount, converted by molar mass. Read-outs that look alike come from different tables or passages of the source.

Legend:
Assay type in all cases: in vivo
[1] = system: common mosquito (Culex pipiens pallens); test: Test Example 1: common mosquito larvae in diluted emulsifiable concentrate, mortality and emergence inhibition; settings: 3.5 ppm; for mortality at 3.5 ppm / pest or weed control at 3.5 ppm: Culex pipiens; for mortality at 3.5 ppm: 24 h, read-out: Mortality; for pest or weed control at 3.5 ppm: read-out: Inhibitory ratio of emergence
Procedure: The emulsifiable concentrates of the following present compounds obtained according to Formulation example 2 were each diluted with water so as to obtain respective aqueous solutions containing 3.5 ppm of said compounds, respectively. One hundred ml of thus diluted aqueous solutions were poured into respective polyethylene cups of 180 ml volume, and 20 of the last instar larvae of common mosquito (Culex pipiens pallens) were liberated thereto. After one day, the dead or alive of the larvae were examined.
Thereafter, the feed was added to respective cups and the number of emerged pupae of the respective cups was counted when all the pupae of no treatment group had emerged to calculate the inhibitory ratios of the emergence.
The mortality and the inhibitory ratio of the emergence are shown according to the following three criteria: • mortality: A; 90% or more, • B; less than 90% to 10%, • C; less than 10%. • inhibitory: A; 90% or more, ratio of • emergence B; less than 90% to 80% • C; less than 80%.

[2] = system: resistant strain of green rice leafhopper (Nephotetix cincticeps); test: Test Example 3: rice seedling dip test, resistant green rice leafhopper; settings: Nephotettix cincticeps, 24 h, rice seedlings dipped 1 minute; adults of resistant strain; after one day; read-out: LC50 value (ppm)
Procedure: The emulsifiable concentrates of the following present compounds and control compounds obtained according to Formulation example 2 were each diluted with water to a prescribed concentration, and rice seedlings (about 12 cm in length) were dipped for 1 minute in the resulting aqueous dilute solutions. After air-drying, the seedlings were placed in test tube, and 10 adults of a resistant strain of green rice leafhopper (Nephotetix cincticeps) were liberated in the tube. After one day, the dead and alive of the adults were examined to obtain LC50 (50% lethal concentration)(two replications).

[3] = system: tobacco cutworms (Spodoptera litura); test: Test Example 2: tobacco cutworm larvae on treated artificial feed; settings: 150 ppm solution, 2 ml in 13 g artificial feed, 4th instar larvae, six days after; for mortality at 150 ppm: Spodoptera litura, 144 h, read-out: Mortality (%)
Excerpt: The emulsifiable concentrates of the following present compounds obtained according to Formulation example 2 were each diluted with water to obtain respective 667 times dilution aqueous solutions (corresponding to 150 ppm) containing said compounds, respectively. Two ml of thus diluted solutions were impregnated into the artificial feeds (13 g) for tobacco cutworms (Spodoptera litura) and thus prepared feeds were placed in polyethylene cups of 11 cm in diameter, respectively. Ten of the 4th instar larvae were liberated thereon.
Six days after, the dead and alive of the larvae were examined to calculate the mortality (two replications).

[4] = system: houseflies (Musca domestica) of WHO strains; test: Test Example 6: housefly filter paper and sucrose bait test; settings: 0.7 ml on filter paper with sucrose bait, adult females, after 48 hours, read-out: LC50 value (ppm)
Procedure: On the bottom of a polyethylene cup of 5.5 cm- in diameter was placed a piece of filter paper of the same size as the bottom, and 0.7 ml of a test solution, prepared by diluting the emulsifiable concentrates of the following present compounds and control compounds prepared according to Formulation example 2 to a prescribed concentration with water, was added dropwise to the filter paper. Thirty milligrams of sucrose were uniformly placed on the filter paper as bait. Thereafter, 10 adult female houseflies (Musca domestica) of WHO strains were liberated in the cup, which was then covered with a lid. After 48 hours, the dead and alive were examined to obtain LC50 value (50% lethal concentration) (two replications).

[5] = system: brown rice planthoppers (Nila^parvata luqens); test: Test Example 7: spray on potted rice plants, brown rice planthopper, residual effect; settings: 20 h, 100 ppm spray, 20 ml/2 pots, twenty hours after liberation
Procedure: The emulsifiable concentrates of the following compounds and control compounds obtained according to Formulation example 2 were each diluted with water one thousand times (corresponding to 100 ppm) and each of thus prepared solutions was sprayed at the rate of 20 ml/2 pots to the rice plant seedlings planted in Wagner pots having a surface area of one ten thousandth are. After air-drying, the treated plants were covered with the iron wire cages, and about 15 adults of brown rice planthoppers (Nila^parvata luqens) were liberated thereto. Further, about 15 adults thereof were also liberated thereto 4 days after the application to examine the residual effects. Twenty hours after each liberation, the dead and alive adults were examined to calculate the mortality.

[6] = 20 last instar larvae, after one day
[7] = counted when all pupae of no treatment group had emerged
[8] = residual effect, read-out: Mortality (%) liberated 4 days after application
[9] = read-out: Mortality (%) liberated just after air-drying

C#CC(C)(CCCc1ccc(F)c(Oc2ccccc2)c1)c1ccc(Cl)c(Cl)c1 (centres unmarked) [(36)]
mortality at 3.5 ppm [1, 6]: 10 to 90% | pest or weed control at 3.5 ppm [1, 7]: > 90% | LC50 [2]: 64 µg/mL (≈ 150 µM)

C#CC(C)(CCCc1ccc(F)c(Oc2ccccc2)c1)c1ccc(OCC=C)cc1 (centres unmarked) [(8)]
mortality at 3.5 ppm [1, 6]: > 90% | pest or weed control at 3.5 ppm [1, 7]: > 90% | mortality at 150 ppm [3]: 100% | LC50 [2]: 54 µg/mL (≈ 130 µM)

C#CC(C)(CCCc1cccc(Oc2ccccc2)c1)c1ccc2c(c1)OCO2 (centres unmarked) [(14)]
mortality at 3.5 ppm [1, 6]: > 90% | pest or weed control at 3.5 ppm [1, 7]: > 90% | mortality at 150 ppm [3]: 100%

C#CC(C)(CCCc1cccc(Oc2ccc(F)cc2)c1)c1ccc(OCC)cc1 (centres unmarked) [(15)]
mortality at 3.5 ppm [1, 6]: > 90% | pest or weed control at 3.5 ppm [1, 7]: > 90% | mortality at 150 ppm [3]: 100% | LC50 [2]: 3.6 µg/mL (≈ 8.94 µM)

C#CC(C)(CCCc1cccc(Oc2ccccc2)c1)c1ccc(OCC)c(Cl)c1 (centres unmarked) [(16)]
mortality at 3.5 ppm [1, 6]: 10 to 90% | pest or weed control at 3.5 ppm [1, 7]: > 90% | mortality at 150 ppm [3]: 100% | LC50 [2]: 15 µg/mL (≈ 35.8 µM)

C#CC(C)(CCCc1ccc(F)c(Oc2ccccc2)c1)c1ccc2c(c1)OCO2 (centres unmarked) [(12)]
LC50 [4]: 13 µg/mL (≈ 32.3 µM) | mortality at 3.5 ppm [1, 6]: > 90% | pest or weed control at 3.5 ppm [1, 7]: > 90% | mortality at 150 ppm [3]: 100% | LC50 [2]: 63 µg/mL (≈ 157 µM)

C#CC(C)(CCCc1cccc(Sc2ccccc2)c1)c1ccc(OCC)cc1 (centres unmarked) [(22)]
mortality at 3.5 ppm [1, 6]: 10 to 90% | pest or weed control at 3.5 ppm [1, 7]: > 90% | mortality at 150 ppm [3]: 100% | LC50 [2]: 90 µg/mL (≈ 225 µM)

C#CC(CC)(CCCc1ccc(F)c(Oc2ccccc2)c1)c1ccc(OCC)cc1 (centres unmarked) [(29)]
mortality at 3.5 ppm [1, 6]: > 90% | pest or weed control at 3.5 ppm [1, 7]: > 90% | mortality at 150 ppm [3]: 100%

C=CC(C)(CCCc1ccc(F)c(Oc2ccccc2)c1)c1ccc(OCC)cc1 (centres unmarked) [(2)]
mortality at 100 ppm [5, 8]: 100% | mortality at 100 ppm [5, 9]: 100% | mortality at 3.5 ppm [1, 6]: > 90% | pest or weed control at 3.5 ppm [1, 7]: > 90% | mortality at 150 ppm [3]: 100% | LC50 [2]: 80 µg/mL (≈ 198 µM)

C#CC(C)(CCCc1ccc(F)c(Oc2ccccc2)c1)c1ccc(OC(F)F)c(Cl)c1 (centres unmarked) [(27)]
LC50 [4]: 11 µg/mL (≈ 24 µM) | mortality at 3.5 ppm [1, 6]: 10 to 90% | pest or weed control at 3.5 ppm [1, 7]: > 90% | LC50 [2]: 31 µg/mL (≈ 67.6 µM)

C#CC(C)(CCCc1ccc(F)c(Oc2ccccc2)c1)c1ccc(OCC=C)c(Cl)c1 (centres unmarked) [(40)]
mortality at 3.5 ppm [1, 6]: 10 to 90% | pest or weed control at 3.5 ppm [1, 7]: > 90% | LC50 [2]: 46 µg/mL (≈ 102 µM)

C#CC(CC)(CCCc1ccc(F)c(Oc2ccccc2)c1)c1ccc(Cl)cc1 (centres unmarked) [(41)]
mortality at 3.5 ppm [1, 6]: > 90% | pest or weed control at 3.5 ppm [1, 7]: > 90%

C#CC(CCCC)(CCCc1ccc(F)c(Oc2ccccc2)c1)c1ccc(OCC)cc1 (centres unmarked) [(42)]
mortality at 3.5 ppm [1, 6]: 10 to 90% | pest or weed control at 3.5 ppm [1, 7]: > 90% | mortality at 150 ppm [3]: 100%

C#CC(C)(CCCc1cccc(Oc2ccccc2)c1)c1ccc(CC)cc1 (centres unmarked) [(23)]
mortality at 3.5 ppm [1, 6]: > 90% | pest or weed control at 3.5 ppm [1, 7]: > 90% | mortality at 150 ppm [3]: 100% | LC50 [2]: 40 µg/mL (≈ 109 µM)

C#CC(C)(CCCc1ccc(F)c(Oc2ccccc2)c1)c1ccc(OC)cc1 (centres unmarked) [(5)]
LC50 [4]: 13 µg/mL (≈ 33.5 µM) | mortality at 3.5 ppm [1, 6]: > 90% | pest or weed control at 3.5 ppm [1, 7]: > 90% | mortality at 150 ppm [3]: 100% | LC50 [2]: 56 µg/mL (≈ 144 µM)

C=CC(C)(CCCc1cccc(Oc2ccccc2)n1)c1ccc(OCC)cc1 (centres unmarked) [(19)]
mortality at 3.5 ppm [1, 6]: 10 to 90% | pest or weed control at 3.5 ppm [1, 7]: > 90%

C#CC(CCCc1cccc(Oc2ccccc2)c1)c1ccc(OCC)cc1 (centres unmarked) [(28)]
mortality at 3.5 ppm [1, 6]: > 90% | pest or weed control at 3.5 ppm [1, 7]: > 90%

C#CC(C)(CCCc1ccc(F)c(Oc2ccccc2)c1)c1ccc(Cl)cc1 (centres unmarked) [(10)]
mortality at 3.5 ppm [1, 6]: > 90% | pest or weed control at 3.5 ppm [1, 7]: > 90% | mortality at 150 ppm [3]: 100% | LC50 [2]: 32 µg/mL (≈ 81.4 µM)

C#CC(C)(CCCc1cccc(Oc2ccccc2)c1)c1ccc(Cl)cc1 (centres unmarked) [(25)]
mortality at 3.5 ppm [1, 6]: > 90% | pest or weed control at 3.5 ppm [1, 7]: > 90% | mortality at 150 ppm [3]: 100% | LC50 [2]: 61 µg/mL (≈ 163 µM)

C#CC(C)(CCCc1ccc(F)c(Cc2ccccc2)c1)c1ccc(OCC)cc1 (centres unmarked) [(30)]
mortality at 3.5 ppm [1, 6]: > 90% | pest or weed control at 3.5 ppm [1, 7]: > 90% | mortality at 150 ppm [3]: 100% | LC50 [2]: 28 µg/mL (≈ 69.9 µM)

C#CC(CC)(CCCc1cccc(Oc2ccccc2)c1)c1ccc(OCC)cc1 (centres unmarked) [(32)]
mortality at 3.5 ppm [1, 6]: > 90% | pest or weed control at 3.5 ppm [1, 7]: > 90%

C=CC(C)(CCCc1ccc(F)c(Nc2ccccc2)c1)c1ccc(OCC)cc1 (centres unmarked) [(31)]
mortality at 3.5 ppm [1, 6]: > 90% | pest or weed control at 3.5 ppm [1, 7]: > 90% | mortality at 150 ppm [3]: 100%

C#CC(CC)(CCCc1cccc(Oc2ccccc2)c1)c1ccc(Cl)cc1 (centres unmarked) [(26)]
mortality at 3.5 ppm [1, 6]: > 90% | pest or weed control at 3.5 ppm [1, 7]: > 90%

C#CC(C)(CCCc1cccc(Oc2ccccc2)n1)c1ccc(OC)cc1 (stereo not drawn) [(44), 3-(4-methoxyphenyl)-3-methyl-6-(6-phenoxy-pyridin-2-yl)-l-hexyne]
mortality at 3.5 ppm [1, 6]: 10 to 90% | pest or weed control at 3.5 ppm [1, 7]: > 90% | mortality at 150 ppm [3]: 100%

C#CC(C)(CCCc1cccc(Oc2ccccc2)c1)c1ccc(F)cc1 (centres unmarked) [(35)]
mortality at 3.5 ppm [1, 6]: > 90% | pest or weed control at 3.5 ppm [1, 7]: > 90% | mortality at 150 ppm [3]: 100% | LC50 [2]: 93 µg/mL (≈ 259 µM)

C#CC(C)(CCCc1cccc(Oc2ccccc2)c1)c1ccc(OC)cc1 (centres unmarked) [(24)]
mortality at 3.5 ppm [1, 6]: 10 to 90% | pest or weed control at 3.5 ppm [1, 7]: > 90% | mortality at 150 ppm [3]: 100% | LC50 [2]: 27 µg/mL (≈ 72.9 µM)

C#CC(C)(CCCc1ccc(F)c(Oc2ccc(C)cc2)c1)c1ccc(OCC)cc1 (centres unmarked) [(33)]
mortality at 3.5 ppm [1, 6]: > 90% | pest or weed control at 3.5 ppm [1, 7]: > 90% | mortality at 150 ppm [3]: 100% | LC50 [2]: 23 µg/mL (≈ 55.2 µM)

C#CC(C)(CCCc1ccc(F)c(Oc2ccccc2)c1)c1ccc(C(F)(F)F)cc1 (centres unmarked) [(37)]
LC50 [4]: 13 µg/mL (≈ 30.5 µM) | Mortality ([1]; 20 last instar larvae, after one day, 1440 min): A (90% or more) | Inhibitory ratio of emergence [1, 7]: A (90% or more) | Mortality (%) ([3]; 8640 min): 100%

CCC(C)c1ccccc1OC(=O)NC (centres unmarked) [(C), BPMC, reference compound]
mortality at 100 ppm [5, 8]: 6% | mortality at 100 ppm [5, 9]: 100% | LC50 [2]: 190 µg/mL (≈ 917 µM)

C#CC(C)(CCCc1ccc(F)c(Oc2ccc(F)cc2)c1)c1ccc(OCC)cc1 (centres unmarked) [(38)]
LC50 [4]: 14 µg/mL (≈ 33.3 µM) | mortality at 3.5 ppm [1, 6]: > 90% | pest or weed control at 3.5 ppm [1, 7]: > 90% | mortality at 150 ppm [3]: 100% | LC50 [2]: 1.9 µg/mL (≈ 4.52 µM)
